Where a name gives a salt, the structure may show the parent alone. Read-outs that look alike come from different tables or passages of the source.
Key:
Type in all cases: in vivo
Plutella xylostella = assay: Test for confirming effect on Plutella xylostella (cabbage leaf immersion, insecticidal rate); conditions: single chemical
Description: Test for Confirming Effect on Plutella xylostella
A flowable agent containing the compound A was diluted with water containing RABIDEN® 3S diluted 5000 times to prepare chemical solutions A containing the compound A at twice concentrations described in Table 3.
A preparation containing the compound B or a flowable agent containing the compound B was diluted with water containing RABIDEN 3S diluted 5000 times to prepare chemical solutions B containing the compound B at twice concentrations described in Table 3, respectively.
Cabbage leaves were immersed in a mixed solution obtained by mixing the chemical solution A and the chemical solution B in an equivalent amount for 30 seconds, and these cabbage leaves were placed in a petri dish, and five second-instar Plutella xylostella larvae were released (AB mixture application plot).
(§1) The chemical solution A and the chemical solution B were twice diluted with the water containing RABIDEN 3S diluted 5000 times to obtain a chemical solution A′ and a chemical solution B′.
Cabbage leaves were immersed in the chemical solution A′ for 30 seconds, and these cabbage leaves were placed in another petri dish, and five second-instar Plutella xylostella larvae were released (A single application plot). Cabbage leaves were immersed in the chemical solution B′ for 30 seconds, and these cabbage leaves were placed in another petri dish, and five second-instar Plutella xylostella larvae were released (B single application plot).
Then, these petri dishes were placed in a thermostatic chamber at a temperature of 25° C. and a humidity of 60%. Three days after the larva release, viability determination was performed, and the insecticidal rate was calculated by the following equation. The test was repeated twice.
(§2) Insecticidal rate (%)=(the number of dead insects/the number of tested insects)×100
(§3) To show the degree of a synergistic effect, the “effectiveness expectation” was calculated based on the Colby method. When the effectiveness is higher than the “effectiveness expectation”, it is determined that there is a synergistic effect.
(§4) Expectation of insecticidal rate (%) (E)=X+Y−XY/100
(§5) X: measurement of insecticidal rate in B single application plot (%)
(§6) Y: measurement of insecticidal rate in A single application plot (%)

Aphis gossypii = assay: Test for confirming effect on Aphis gossypii (cucumber sprinkling, insecticidal rate)
Description: Test for confirming effect on Aphis gossypii A flowable agent containing the compound A was diluted with water containing RABIDEN 3S diluted 5000 times to prepare chemical solutions A containing the compound A at twice concentrations described in Table 4.
A preparation containing the compound B or a flowable agent containing the compound B was diluted with water containing RABIDEN 3S diluted 5000 times to prepare chemical solutions B containing the compound B at twice concentrations described in Table 4.
First, 9-cm pots were sown with cucumbers. Aphis gossypii female imagoes were released on the cucumbers 10 days after the sprouting. The borne first-instar larvae were left, and the female imagoes were removed on the next day. A mixed solution obtained by mixing the chemical solution A and the chemical solution B in an equivalent amount was sprinkled on the cucumbers (AB mixture application plot).
as §1
The chemical solution A′ was sprinkled on the cucumbers sown with the first-instar larvae by the same method as in the AB mixture application plot (A single application plot). The chemical solution B′ was sprinkled on the cucumbers sown with the first-instar larvae by the same method as in the AB mixture application plot (B single application plot).
Then, the cucumbers sprinkled with the chemical solutions were placed in a thermostatic chamber at a temperature of 25° C. and a humidity of 60%, the viability of the Aphis gossypii was inspected after 6 days, and the insecticidal rate was calculated by the following equation. The test was repeated twice.
as §2, §3, §4, §5, §6

Phyllotreta striolata = assay: Test for confirming effect on Phyllotreta striolata (bok choy seedling sprinkling, insecticidal rate)
Description: Test for Confirming Effect on Phyllotreta striolata
A flowable agent containing the compound A was diluted with water containing RABIDEN 3S diluted 5000 times to prepare chemical solutions A containing the compound A at twice concentrations described in Table 5.
A preparation containing the compound B or a flowable agent containing the compound B was diluted with water containing RABIDEN 3S diluted 5000 times to prepare chemical solutions B containing the compound B at twice concentrations described in Table 5.
A mixed solution obtained by mixing the chemical solution A and the chemical solution B in an equivalent amount was sprinkled on bok choy seedlings (at the seventh true leaf stage) planted in 9-cm pots. After air dry, these bok choy seedlings were placed in plastic cups, and ten Phyllotreta striolata imagoes were released (AB mixture application plot).
as §1
The chemical solution A′ was sprinkled on bok choy seedlings (at the seventh true leaf stage) planted in 9-cm pots. After air dry, these bok choy seedlings were placed in plastic cups, and ten Phyllotreta striolata imagoes were released (A single application plot). The chemical solution B′ was sprinkled on bok choy seedlings (at the seventh true leaf stage) planted in 9-cm pots. After air dry, these bok choy seedlings were placed in plastic cups, and ten Phyllotreta striolata imagoes were released (B single application plot).
Then, the bok choy seedlings sprinkled with the chemical solutions were placed in a thermostatic chamber at a temperature of 25° C. and a humidity of 60%, viability determination was performed 6 days after the insect release, and the insecticidal rate was calculated by the following equation. The test was repeated twice.
Insecticidal rate (%)=(the number of the dead insects/the number of tested insects)×100
as §3, §4, §5, §6

[1] = Aphis gossypii, 144 h, single chemical, 0.12 ppm, after 6 days, read-out: Effectiveness Measurement (insecticidal rate)
[2] = single chemical, 0.12 ppm, after 6 days
[3] = Phyllotreta striolata, 144 h, single application, Phyllotreta striolata imagoes, 6 days after release, read-out: Effectiveness Measurement (insecticidal rate)
[4] = Plutella xylostella, read-out: Effectiveness Measurement (insecticidal rate)
[5] = Phyllotreta striolata, 144 h, single application, 31 ppm, Phyllotreta striolata imagoes, 6 days after release, read-out: Effectiveness Measurement (insecticidal rate)
[6] = Aphis gossypii, 144 h, single chemical, 2 ppm, after 6 days, read-out: Effectiveness Measurement (insecticidal rate)
[7] = Aphis gossypii, 144 h, single chemical, after 6 days, read-out: Effectiveness Measurement (insecticidal rate)
[8] = Plutella xylostella, 0.5 ppm, read-out: Effectiveness Measurement (insecticidal rate)

`CCS(=O)(=O)c1cc(C2CC2)cnc1-c1ncc(C=C(Cl)C(F)(F)F)n1C` [Compound (II)] was tested, and the pest or weed control at 0.12 ppm (Plutella xylostella; Plutella xylostella, 0.12 ppm, read-out: Effectiveness Measurement (insecticidal rate)) was 10%, the “Effectiveness Measurement (insecticidal rate)” value (from here on “Effectiveness Measurement”) (Plutella xylostella; 0.12 ppm) was 10% and the pest or weed control at 0.12 ppm (Aphis gossypii; [1]) was 18%. For the same compound, the “Effectiveness Measurement” value (Aphis gossypii; [2]) was 18% and the pest or weed control at 0.5 ppm (Phyllotreta striolata; [3]) was 20%.
In the case of `CN(C)C(CSC(N)=O)CSC(N)=O` [Cartap hydrochloride, cartap hydrochloride], the pest or weed control at 2 ppm (Plutella xylostella; [4]) is reported as 40% and the pest or weed control at 31 ppm (Phyllotreta striolata; [5]) is reported as 60%.
With `CON=CNC(=O)c1ccc(C2=NOC(c3cc(Cl)cc(Cl)c3)(C(F)(F)F)C2)cc1C` (stereo not shown) [Fluxametamide, fluxametamide] the “Effectiveness Measurement” value (Plutella xylostella; 0.12 ppm) was 40%, the “Effectiveness Measurement” value (Aphis gossypii; single chemical, 2 ppm, after 6 days) was 60% and the “Effectiveness Measurement” value (Phyllotreta striolata; single application, 2 ppm, Phyllotreta striolata imagoes, 6 days after release) was 20%.
`CNC(=O)c1cc(C#N)cc(C)c1NC(=O)c1cc(Br)nn1-c1ncccc1Cl` [Cyantraniliprole, cyantraniliprole] was tested, and the pest or weed control at 8 ppm (Plutella xylostella; [4]) was 10%, the pest or weed control at 0.12 ppm (Aphis gossypii; [1]) was 50% and the pest or weed control at 0.5 ppm (Phyllotreta striolata; [3]) was 20%.
In the case of `CNC(=O)Oc1cccc2c1OC(C)(C)C2` [Carbofuran, carbofuran], the pest or weed control at 2 ppm (Plutella xylostella; [4]) is reported as 10%, the pest or weed control at 2 ppm (Aphis gossypii; [6]) is reported as 14% and the pest or weed control at 31 ppm (Phyllotreta striolata; [5]) is reported as 20%.
`N#CCNC(=O)c1cnccc1C(F)(F)F` [Flonicamid] was tested, and the “Effectiveness Measurement” value (Aphis gossypii; [2]) was 21%.
`CCc1nn(C)c(C(=O)NCc2ccc(Oc3ccc(C)cc3)cc2)c1Cl` [Tolfenpyrad] showed a pest or weed control at 8 ppm (Plutella xylostella; [4]) of 20% and a pest or weed control at 0.12 ppm (Aphis gossypii; [1]) of 18%.
`CC(C)N1C(=O)N(c2ccccc2)CS/C1=N\C(C)(C)C` [Buprofezin] was tested, and the pest or weed control at 31 ppm (Aphis gossypii; Aphis gossypii, 144 h, single chemical, 31 ppm, after 6 days, read-out: Effectiveness Measurement (insecticidal rate)) was 33%.
Compound `CCc1ccc(C(=O)NN(C(=O)c2cc(C)cc(C)c2)C(C)(C)C)cc1` [Tebufenozide] has a pest or weed control at 31 ppm (Plutella xylostella; Plutella xylostella, 31 ppm, read-out: Effectiveness Measurement (insecticidal rate)) of 40%.
Work on `C/C(=N\C#N)N(C)Cc1ccc(Cl)nc1` [Acetamiprid, acetamiprid] yielded a pest or weed control at 8 ppm (Plutella xylostella; [4]) of 10%, a pest or weed control at 0.12 ppm (Aphis gossypii; [1]) of 40% and a pest or weed control at 8 ppm (Phyllotreta striolata; Phyllotreta striolata, 144 h, single application, 8 ppm, Phyllotreta striolata imagoes, 6 days after release, read-out: Effectiveness Measurement (insecticidal rate)) of 20%.
`CC1=NNC(=O)N(/N=C/c2cccnc2)C1` [Pymetrozine] showed a pest or weed control at 0.12 ppm (Aphis gossypii; [1]) of 68%.
Work on `CCS(=O)(=O)c1cc(C(F)(F)F)cnc1-c1ncc(/C=C(\Cl)C(F)(F)C(F)(F)F)n1C` [Compound (IV)] yielded a pest or weed control at 0.03 ppm (Plutella xylostella; Plutella xylostella, 0.03 ppm, read-out: Effectiveness Measurement (insecticidal rate)) of 20%, a pest or weed control at 0.5 ppm (Aphis gossypii; [7]) of 64% and a pest or weed control at 0.5 ppm (Phyllotreta striolata; [3]) of 10%.
`O=C(NC(=O)c1c(F)cccc1F)Nc1cc(Cl)c(F)c(Cl)c1F` [Teflubenzuron] gave a pest or weed control at 0.5 ppm (Plutella xylostella; [8]) of 40%.
`COP(=O)(NC(C)=O)SC` (stereo not shown) [Acephate, acephate] showed a pest or weed control at 31 ppm (Aphis gossypii; Aphis gossypii, 144 h, read-out: Effectiveness Measurement (insecticidal rate)) of 50% and a pest or weed control at 8 ppm (Phyllotreta striolata; Phyllotreta striolata, 144 h, read-out: Effectiveness Measurement (insecticidal rate)) of 40%.
`CCOCn1c(-c2ccc(Cl)cc2)c(C#N)c(Br)c1C(F)(F)F` [Chlorfenapyr, chlorfenapyr] showed a pest or weed control at 2 ppm (Plutella xylostella; [4]) of 20%, a pest or weed control at 2 ppm (Aphis gossypii; [6]) of 6% and a pest or weed control at 2 ppm (Phyllotreta striolata; Phyllotreta striolata, 144 h, single application, 2 ppm, Phyllotreta striolata imagoes, 6 days after release, read-out: Effectiveness Measurement (insecticidal rate)) of 40%.
With `Cc1c(COC(=O)[C@@H]2[C@H](/C=C(\Cl)C(F)(F)F)C2(C)C)cccc1-c1ccccc1` (racemic) [Bifenthrin] the pest or weed control at 125 ppm (Plutella xylostella; Plutella xylostella, 125 ppm, read-out: Effectiveness Measurement (insecticidal rate)) was 40% and the pest or weed control at 0.03 ppm (Aphis gossypii; Aphis gossypii, 144 h, single chemical, 0.03 ppm, after 6 days, read-out: Effectiveness Measurement (insecticidal rate)) was 42%.
In the case of `CCS(=O)(=O)c1cc(C2CC2)cnc1-c1ncc(C(F)C(F)(C(F)(F)F)C(F)(F)F)n1C` (stereo not shown) [Compound (III)], the pest or weed control at 0.5 ppm (Plutella xylostella; [8]) is reported as 40%, the pest or weed control at 0.5 ppm (Aphis gossypii; [7]) is reported as 31% and the pest or weed control at 0.5 ppm (Phyllotreta striolata; [3]) is reported as 20%.
Abamectin was tested, and the “Effectiveness Measurement” value (Plutella xylostella; 0.5 ppm) was 40%.
`N#Cc1nn(-c2c(Cl)cc(C(F)(F)F)cc2Cl)c(N)c1[S+]([O-])C(F)(F)F` (stereo not shown) [Fipronil, fipronil] gave a pest or weed control at 0.5 ppm (Plutella xylostella; [8]) of 40%, a pest or weed control at 0.5 ppm (Aphis gossypii; [7]) of 29% and a pest or weed control at 0.12 ppm (Phyllotreta striolata; Phyllotreta striolata, 144 h, single application, 0.12 ppm, Phyllotreta striolata imagoes, 6 days after release, read-out: Effectiveness Measurement (insecticidal rate)) of 20%.
In the case of `N#Cc1ccc(CC(=NNC(=O)Nc2ccc(OC(F)(F)F)cc2)c2cccc(C(F)(F)F)c2)cc1` (mixture of isomers) [Metaflumizone, metaflumizone], the “Effectiveness Measurement” value (Plutella xylostella; 0.5 ppm) is reported as 20% and the “Effectiveness Measurement” value (Phyllotreta striolata; single application, 31 ppm, Phyllotreta striolata imagoes, 6 days after release) is reported as 40%.
In the case of Spinetoram, the “Effectiveness Measurement” value (Plutella xylostella; 0.0076 ppm) is reported as 40%.

— patent publication US20230157288A1, “PEST CONTROL METHOD, PEST CONTROL AGENT COMPOSITION, AND PEST CONTROL AGENT SET” (priority 2020, published 2023)
